Molecular target: T1, Autotaxin (Homo sapiens, UniProt Q13822)
T1 construct: purchased Sino Biological 11308-H07H
Assay: HDX-MS of Autotaxin with and without EL244
Format: binding
Description: All HDX experiments were performed using a dual head parallel Trajan LEAP automation system (Carrboro, NC, USA).[153] Briefly, 5μL of reconstituted Autotaxin (1.25mg/mL) with and without EL244, was diluted into 100μL of labeling buffer (10mM PBS, 150mM sodium chloride, pD = 7.4 in D2O). pD was determined using pH measurements with a glass electrode and corrected for the isotopic effect.[154] Samples were labeled in quadruplicate for each labeling time (30s, 300s and 3000s) at 25°C. For experiments with bounded Autotaxin, both the protein stock and labeling buffer contained 50μM of the ligand to ensure >95% bound protein during labeling.[155] Afterward, 100 μL of labeled samples were quenched by mixing with equal amounts of precooled quench buffer (100mM glycine, 3M urea, 0.5M TCEP, pH 2.3 in water) at 1°C and held at that temperature for 120s to improve disulfide bond reduction. Non-deuterated controls and initial peptide map samples were prepared identically but using 10mM PBS, 150mM sodium chloride, pH = 7.4 in water as labeling buffer. […] Peptide masses were measured using a Waters SELECT SERIES cyclic IMS QTOF system using positive mode ionization and single pass ion mobility. All HDX experiments were measured using HDMS mode while initial peptide maps used HDMSE with a collision energy ramp of 20-45v.[156] […]

SMILES: O=C1NC(=O)C(Cc2ccc(OCCC3CCN(C(=O)OCc4cc(Cl)cc(Cl)c4)CC3)cc2)S1 (centres unmarked) [EL244, 3,5-dichlorobenzyl 4-(2-(4-((2,4-dioxothiazolidin-5-yl)methyl)phenoxy)ethyl)piperidine-1-carboxylate]
- Binding site on ATX (HDX-MS, protected region 214–289 mapped on 2XR9): binds to the hydrophobic pocket and the allosteric tunnel of ATX
- ATX inhibitor type (HDX/MS and MD analysis): type IV ATX inhibitor

Source: paper PMC13198257, “An aerosolized dual-action autotaxin inhibitor-PPARγ agonist for the treatment of pulmonary fibrosis” (Cell Reports Medicine, 2026)
